Assay type in all cases: organism-based
Series [1] has as its system Arabidopsis thaliana. Put plainly: Phytotoxicity against Arabidopsis thaliana Col-4 leaves assessed as induction of chlorosis, shriveling or death of leaves […] by detached leaf assay. Particulars: in vivo.
In series [2] the test system is Arabidopsis thaliana. Put plainly: Phytotoxicity against Arabidopsis thaliana Col-4 leaves assessed as induction of chlorosis at 100 uM […] by detached leaf assay. Particulars: in vivo, 1176 h.
Series [3] relates to Arabidopsis thaliana. Put plainly: Phytotoxicity against Arabidopsis thaliana Col-4 leaves assessed as induction of leaf death at 50 uM […] by detached leaf assay. Conditions: in vivo.
Series [4] relates to Arabidopsis thaliana. The experiment in a line: Phytotoxicity against Arabidopsis thaliana Col-4 leaves assessed as induction of leaf death at 10 uM […] by detached leaf assay. Conditions: in vivo.
Series [5] has as its system Arabidopsis thaliana. The experiment in a line: Phytotoxicity against Arabidopsis thaliana Col-4 leaves assessed as induction of chlorosis at 50 uM […] by detached leaf assay. Particulars: in vivo, 1176 h.
Series [6] has as its system Arabidopsis thaliana. Put plainly: Phytotoxicity against Arabidopsis thaliana Col-4 leaves assessed as induction of chlorosis at 10 uM […] by detached leaf assay. Particulars: in vivo.
The subject of series [7] is Arabidopsis thaliana. Put plainly: Phytotoxicity against Arabidopsis thaliana Col-4 leaves assessed as induction of leaf death at 100 uM […] by detached leaf assay. Conditions: in vivo.
Series [8] can be described thus: Phytotoxicity against Arabidopsis thaliana Col-4 leaves assessed as induction of leaf death after 7 weeks post compound application by detached leaf assay. Particulars: Col-4, arabidopsis thaliana, read-out: LD50.

Some results are limits rather than exact numbers.

In the case of `CC(=O)O[C@@H]1C[C@@H](O)[C@H]2O[C@@H]3C=C(C)C(=O)[C@@H](O)[C@]3(CO)[C@]1(C)[C@@]21CO1` [4-ACETYLNIVALENOL], the ED50 in the series with Arabidopsis thaliana [1] stood at 16.1 µM.

Take `CC(=O)O[C@@H]1CC[C@]2(C)[C@@]3(CO)CCC(C)=C[C@H]3O[C@H]1[C@]21CO1` [15-DEACETYLCALONECTRIN]: the Activity in the series with Arabidopsis thaliana [2] stood at 50%. Further, in the series on Arabidopsis thaliana [1], the ED50 is > 100 µM.

With `CC1=CC(O)[C@@](C)([C@@]2(C)C[C@@H](O)[C@@H](O)C23CO3)CC1` (stereo partly drawn) [ISOTRICHOTRIOL], the Activity in the series on Arabidopsis thaliana [3], in the series with Arabidopsis thaliana [4], in the series on Arabidopsis thaliana [5], with Arabidopsis thaliana [6], in the series on Arabidopsis thaliana [7] and in the series on Arabidopsis thaliana [2] was 10% each time. In addition, the ED50 with Arabidopsis thaliana [1] is > 100 µM.

Consider `CC(=O)OC[C@]12[C@H](O)C(=O)C(C)=C[C@H]1O[C@@H]1[C@H](OC(C)=O)CC[C@@]2(C)[C@@]12CO2` [3,15-DIACETYLDEOXYNIVALENOL], for which the ED50 in the series on Arabidopsis thaliana [1] worked out at 10 µM. In addition, the LC50 at 1176 h in series [8] was 28.2 µM.

On to `CC(=O)OC[C@]12[C@H](O)C(=O)C(C)=C[C@H]1O[C@@H]1[C@H](O)C[C@@]2(C)[C@]12CO2` [15-ACETYLDEOXYNIVALENOL], for which, in the series on Arabidopsis thaliana [1], the ED50 was 1.3 µM. For the same compound, the LC50 at 1176 h in series [8] was 4 µM.

Turning to `CC(=O)OC[C@]12[C@H](O)C(=O)C(C)=C[C@H]1O[C@@H]1[C@H](OC(C)=O)C[C@@H](O)[C@@]2(C)[C@@]12CO2` [3,15-DIACETYLNIVALENOL], in the series with Arabidopsis thaliana [1], the ED50 was 2.2 µM. Besides, in series [8], the LC50 at 1176 h came to 4.3 µM.

For `CC(=O)OC[C@]12CCC(C)=C[C@H]1O[C@@H]1[C@H](O)CC[C@@]2(C)[C@@]12CO2` [3-DEACETYLCALONECTRIN], the ED50 in the series with Arabidopsis thaliana [1] stood at 7.6 µM.

Turning to `CC1=C[C@H]2O[C@@H]3[C@H](O)C[C@](C)([C@@]2(CO)[C@H](O)C1=O)[C@]31CO1` [DEOXYNIVALENOL], the ED50 in the series with Arabidopsis thaliana [1] worked out at 3.8 µM. In series [8], the LC50 at 1176 h stood at 23 µM.

For `CC1=C[C@H]2O[C@@H]3[C@H](O)CC[C@](C)([C@@]2(C)CC1)[C@@]31CO1` [ISOTRICHODERMOL], in the series on Arabidopsis thaliana [1], the ED50 is 3.5 µM.

For the compound `CC(=O)O[C@@H]1CC[C@]2(C)[C@@]3(C)CCC(C)=C[C@H]3O[C@H]1[C@]21CO1` [ISOTRICHODERMIN], the ED50 in the series with Arabidopsis thaliana [1] was determined as 8.6 µM. Also, the LC50 at 1176 h in series [8] worked out at 16.1 µM.

Turning to `CC1=C[C@H]2O[C@@H]3[C@H](O)CC[C@](C)([C@@]2(CO)CC1)[C@@]31CO1` [3,15-DIDEACETYLCALONECTRIN], the ED50 in the series on Arabidopsis thaliana [1] is 90.1 µM.

Take `CC1=C[C@H]2O[C@@H]3[C@H](O)C[C@@H](O)[C@](C)([C@@]2(CO)CC1)[C@@]31CO1` [SCIRPENTRIOL]: the ED50 in the series on Arabidopsis thaliana [1] was 53.6 µM.

With `CC(=O)OC[C@]12CCC(C)=C[C@H]1O[C@@H]1[C@H](OC(C)=O)C[C@@H](OC(C)=O)[C@@]2(C)[C@@]12CO2` [3,4,15-TRIACETOXYSCIRPENOL], in the series on Arabidopsis thaliana [1], the ED50 is 6.7 µM.

With `CC(=O)O[C@@H]1C[C@]2(C)[C@@]3(CO)[C@H](O)C(=O)C(C)=C[C@H]3O[C@H]1[C@@]21CO1` [3-ACETYLDEOXYNIVALENOL], the ED50 with Arabidopsis thaliana [1] was 3.4 µM. In series [8], the LC50 at 1176 h was 18.7 µM.

In the case of `C=C1CCC[C@]1(C)[C@]1(C)CC=C(C)CC1` [TRICHODIENE], the Activity in the series on Arabidopsis thaliana [7] worked out at 3%; in the series with Arabidopsis thaliana [2] it was 10%. For the same compound, in the series with Arabidopsis thaliana [1], the ED50 is > 100 µM.

Consider `CC1=C[C@H]2O[C@@H]3[C@H](O)[C@@H](O)[C@](C)([C@@]2(CO)[C@H](O)C1=O)[C@]31CO1` [NIVALENOL], for which the Activity in the series on Arabidopsis thaliana [2] was found to be 10%. Besides, the ED50 in the series on Arabidopsis thaliana [1] is > 100 µM. Moreover, the LC50 at 1176 h in series [8] was > 100 µM.
